# Measurements taken from publication PMC6390180, “Functionality of membrane proteins overexpressed and purified from E. coli is highly dependent upon the strain” (Scientific Reports, 2019).
# Molecular target: T1, PatA/PatB (Streptococcus pneumoniae, UniProt Q8DN70+Q8DN72)
# T1 construct: gene ABC-NP; full heterodimer co-expressed from pETDuet-1-PatA/PatB in E. coli C41(DE3), BL21(DE3), T7 express or Lemo21(DE3); His-tagged; inverted membrane vesicles, or purified in LMNG / proteoliposomes
# Experiment: fluorescence transport assay, inverted membrane vesicles
# Type: biochemical
# Conditions: 1 µM Hoechst 33342, 2 mM GTP, 2 mM MgCl2, pH 8.0, 25 °C; transported drug
# T1 sequence (Q8DN70 entry or part of it): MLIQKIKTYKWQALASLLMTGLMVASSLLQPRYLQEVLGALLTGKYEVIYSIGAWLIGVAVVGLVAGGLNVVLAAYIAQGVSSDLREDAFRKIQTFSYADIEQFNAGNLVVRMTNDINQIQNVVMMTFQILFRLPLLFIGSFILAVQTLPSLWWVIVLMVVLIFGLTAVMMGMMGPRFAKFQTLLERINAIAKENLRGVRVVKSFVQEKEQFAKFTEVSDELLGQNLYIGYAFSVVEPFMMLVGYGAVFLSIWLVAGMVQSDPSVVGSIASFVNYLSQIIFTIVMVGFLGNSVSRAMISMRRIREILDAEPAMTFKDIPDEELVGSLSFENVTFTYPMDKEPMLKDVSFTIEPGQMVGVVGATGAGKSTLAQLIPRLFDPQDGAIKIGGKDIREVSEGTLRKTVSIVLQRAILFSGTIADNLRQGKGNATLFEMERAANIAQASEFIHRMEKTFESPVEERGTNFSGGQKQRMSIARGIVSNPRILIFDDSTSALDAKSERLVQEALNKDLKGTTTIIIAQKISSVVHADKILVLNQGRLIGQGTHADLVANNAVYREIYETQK
# T1 sequence (Q8DN72 entry or part of it): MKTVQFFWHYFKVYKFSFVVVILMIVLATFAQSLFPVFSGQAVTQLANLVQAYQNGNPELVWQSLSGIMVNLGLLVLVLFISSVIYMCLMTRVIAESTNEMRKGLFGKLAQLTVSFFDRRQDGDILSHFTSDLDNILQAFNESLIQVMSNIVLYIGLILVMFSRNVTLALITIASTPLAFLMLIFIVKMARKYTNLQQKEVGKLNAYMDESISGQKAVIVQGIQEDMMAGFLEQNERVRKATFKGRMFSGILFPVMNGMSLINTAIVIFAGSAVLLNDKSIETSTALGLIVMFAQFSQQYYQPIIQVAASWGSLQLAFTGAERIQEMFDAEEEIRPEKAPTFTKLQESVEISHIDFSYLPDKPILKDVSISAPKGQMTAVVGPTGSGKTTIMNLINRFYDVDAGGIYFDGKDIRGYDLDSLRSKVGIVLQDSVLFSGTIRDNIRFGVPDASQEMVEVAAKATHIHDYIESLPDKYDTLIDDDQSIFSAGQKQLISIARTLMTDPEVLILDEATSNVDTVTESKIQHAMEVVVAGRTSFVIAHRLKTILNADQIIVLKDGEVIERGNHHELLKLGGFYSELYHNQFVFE
compound,measurement,value
"CCOc1ccc(-c2nc3ccc(-c4nc5ccc(N6CCN(C)CC6)cc5[nH]4)cc3[nH]2)cc1 [Hoechst 33342, 2-(4-ethoxyphenyl)-5-(4-methyl-1-piperazinyl)-2,5-bis-1H-benzimidazole]","fluorescence transport assay, inverted membrane vesicles",a fluorescent drug translocated by PatA/PatB
